# Experimental data from patent publication US4957909A, “Benzobicycloalkane derivatives as anticonvulsant neuroprotective agents” (American Home Products Corporation, priority 1990, dated 1990).
# Experiments:
# [1] = system: NMDA-induced neuronal release of norepinephrine; experiment: Inhibition of NMDA-induced [3H]norepinephrine release from rat hippocampal slices; format: cell-based; conditions: 100 μM concentration, NMDA 150 μM
# Protocol: In addition, the compounds involved herein were established as inhibitors of NMDA-induced neuronal release of norepinephrine by showing that (-)-13β-methylamino-3-methoxy-5α-methyl-5,6,7,8,9,10,11,12-octahydro-5,11-meth-anobenzocyclodecene inhibits 89 percent of the NMDA-inducednorepinephrine release at 100 μM concentration in the following standard test procedure:
# Rat hippocampal slices (0.5 mm thick) were incubated (37° C.) for 30 minutes in oxygenated (bubbled 95% O2 /5% CO2), physiological medium (containing 117 mM NaCl, 4.7 mM KCl, 11.5 mM glucose, 1.2 mM MgCl2, 10 μM pargyline, 1 mM ascorbate, 1.2 mM NaH2 PO4 and 25 mM NaHCO3, adjusted to pH 7.4). The slices were then washed with 0.9% NaCl and incubated in physiological medium with 0.1 μM [^3 H] norepinephrine (30 minutes, 37° C.). The slices were again washed with 0.9% NaCl and then placed in tubes (borosilicate glass, 12×75 mm) containing 0.5 ml Mg^+2 -free physiological medium with 50 μM corticosterone and 10 μM desipramine added to minimize norepinephrine reuptake. Samples were analyzed for [^3 H] content at 5 minute intervals. After 75 minutes, the inhibitor drug was added. Fifteen minutes later NMDA was added to a concentration of 150 μM. The amount of [^3 H] released was measured by liquid scintillation spectroscopy. […]
# [2] = system: male Swiss-albino mice (CD-1 strain); experiment: NMDA antagonism in mice: NMDA-induced generalized myoclonus and death, ED50 for survival; format: in vivo; conditions: mice pretreated 30 min before NMDA 195 mg/kg i.p.
# Protocol: The mice were pretreated with the representative test compounds followed thirty minutes later with NMDA (195 mg/kg, i.p., the ED90 dose for generalized myoclonus). The mice were then observed for 30 minutes, noting the latency of onset of generalized myoclonus (uncontrollable hind leg scratching or limbs and/or torso muscle jerking with loss of righting reflex) and death. From the latter, the ED50 for survival is determined.
smiles,measurement,setting,value
"CNC1C2CCCCCC1(C)c1cc(OC)ccc1C2 (single isomer, unassigned; (-)) [(-)-13β-methylamino-3-methoxy-5α-methyl-5,6,7,8,9,10,11,12-octahydro-5,11-methanobenzocyclodecene]",inhibition of NMDA-induced norepinephrine release,[1],89%
same,ED50 for survival,[2]; i.p.,56 mg/kg
same,ED50 for survival,[2]; p.o.,97 mg/kg
